Here are results for 14 molecules from PubChem BioAssay (NCI).

Test systems include KM12 colon; SK-MEL-5 melanoma; LXFL 529 NSCLC; MALME-3M melanoma; UACC-62 melanoma; OVCAR-4 ovarian; NCI-H460 lung; UO-31 renal; HOP-92 NSCLC; HCC-2998 colon.
Holding throughout (experiment): NCI-60 cell line screen, 48 h

Values joined by “and” are separate entries in the source; they are usually repeats but may differ in a detail not shown here. Equal entries are not always repeated.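 Compound exposure: 48 hours, 5 concentrations, 96-well plates. GI50 = concentration required for 50% inhibition of growth. TGI marks complete inhibition of growth.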

In the case of `COc1ccc(C2S/C(=C\c3ccccc3O)C(=O)N2NC(=O)Cc2ccccc2)cc1` (stereo not drawn), the TGI in the experiment on KM12 colon, in the experiment on SK-MEL-5 melanoma, in the experiment with LXFL 529 NSCLC, with MALME-3M melanoma, with UACC-62 melanoma and in the experiment with OVCAR-4 ovarian was over 100 µM each time. The TGI with NCI-H460 lung, with UO-31 renal and with HOP-92 NSCLC was over 100 µM each time.

As for `O=[n+]1c2c(n([O-])c3ccccc31)CCCCCCCCCC2`, the TGI in the experiment with KM12 colon, with LXFL 529 NSCLC, in the experiment on MALME-3M melanoma, in the experiment with UACC-62 melanoma, with UO-31 renal and in the experiment with HOP-92 NSCLC was over 100 µM each time.

As for `O=C1CCCC/C(=C/c2ccccc2)N1`, the TGI in the experiment with KM12 colon, in the experiment with LXFL 529 NSCLC, with MALME-3M melanoma, in the experiment with HCC-2998 colon, in the experiment on UACC-62 melanoma and in the experiment on OVCAR-4 ovarian was over 100 µM throughout. For the same molecule, the TGI in the experiment on NCI-H460 lung, in the experiment on UO-31 renal and in the experiment on HOP-92 NSCLC was over 100 µM in each case.

`O=C1OC(c2ccccc2)=N/C1=C/C=C/c1ccco1`: the TGI in the experiment on KM12 colon, in the experiment with SK-MEL-5 melanoma, in the experiment with LXFL 529 NSCLC, in the experiment with MALME-3M melanoma, in the experiment on HCC-2998 colon and with UACC-62 melanoma was over 100 µM in each case. Further, the TGI with OVCAR-4 ovarian, with UO-31 renal and with HOP-92 NSCLC was over 100 µM throughout.

Consider `CCCCN(CCCC)CC(C(=O)Nc1ccc([N+](=O)[O-])cc1[N+](=O)[O-])/C(C)=N\NC(=S)NN` (stereo not drawn), for which the TGI in the experiment with KM12 colon, in the experiment with SK-MEL-5 melanoma, in the experiment on LXFL 529 NSCLC, in the experiment with MALME-3M melanoma, with HCC-2998 colon and in the experiment with UACC-62 melanoma was over 100 µM each time. Moreover, the TGI in the experiment with NCI-H460 lung, in the experiment with UO-31 renal and in the experiment with HOP-92 NSCLC was over 100 µM in each case.

With `O=C(O/N=C1/CCCC/C1=C\c1ccccc1)c1ccccc1`, the TGI in the experiment with KM12 colon is over 100 µM; with SK-MEL-5 melanoma, 0.34 µM; with LXFL 529 NSCLC, over 100 µM; in the experiment with MALME-3M melanoma, over 100 µM; in the experiment with HCC-2998 colon, over 100 µM; with UACC-62 melanoma, over 100 µM. Moreover, the TGI in the experiment with UO-31 renal and in the experiment with HOP-92 NSCLC was over 100 µM each time.

Turning to `CC1=CC(/C=C(\C)CCCc2ccoc2)C2(OC(=O)C(C)=C2O)[C@H]2C1CC[C@@H]2C` (stereo partly drawn), the TGI in the experiment with KM12 colon was over 100 µM; with SK-MEL-5 melanoma, 46.4 µM; in the experiment on LXFL 529 NSCLC, 58.8 µM; in the experiment with MALME-3M melanoma, 57.1 µM; in the experiment on HCC-2998 colon, 74.2 µM; in the experiment on UACC-62 melanoma, 37.5 µM. Moreover, the results for the TGI in the experiment on UO-31 renal and with HOP-92 NSCLC were 31 µM and 41 µM, respectively.

For the molecule `CC(C)(C)OC(=O)NCC(=O)OCc1ccccc1`, the TGI in the experiment on KM12 colon, in the experiment on LXFL 529 NSCLC, with MALME-3M melanoma, in the experiment with HCC-2998 colon, in the experiment with UACC-62 melanoma and in the experiment with NCI-H460 lung was over 100 µM in each case. For the same molecule, the TGI in the experiment on UO-31 renal and in the experiment with HOP-92 NSCLC was over 100 µM in each case.

For the molecule `CC(=O)Nc1ccc(C(=O)NN2C(=O)C(Cl)C2c2ccccc2)cc1` (stereo not drawn), the TGI in the experiment with SK-MEL-5 melanoma, with LXFL 529 NSCLC, in the experiment on MALME-3M melanoma, in the experiment on UACC-62 melanoma, in the experiment with OVCAR-4 ovarian and with NCI-H460 lung was over 100 µM each time. In addition, the TGI in the experiment on UO-31 renal and in the experiment on HOP-92 NSCLC was over 100 µM throughout.

Turning to `O=S(O)CCCCSSCC(O)C(O)CSSCCCCS(=O)O` (stereo not drawn), the TGI in the experiment on KM12 colon was 36.4 µM and > 100 µM; in the experiment on SK-MEL-5 melanoma, 18.1 µM and 26 µM; in the experiment with LXFL 529 NSCLC, 22.5 µM and 30.5 µM; with MALME-3M melanoma it was 25.8 µM and 35.9 µM; in the experiment on UACC-62 melanoma, 25.6 µM and 38.2 µM; with OVCAR-4 ovarian it was 19.9 µM and 23.8 µM. In addition, the TGI in the experiment on NCI-H460 lung is over 100 µM; in the experiment on UO-31 renal it was 67.3 µM and 79.5 µM; in the experiment on HOP-92 NSCLC, 79.7 µM and 96.5 µM. In the experiment on SK-MEL-5 melanoma, the GI50 was 4.97 µM and 11.2 µM.

As to `COc1ccc(NC(=O)CCc2cc(-c3ccc(O)c(OC)c3)nc(NC#N)n2)cc1`, the TGI with KM12 colon, in the experiment on LXFL 529 NSCLC, in the experiment with MALME-3M melanoma, in the experiment with HCC-2998 colon, in the experiment with UACC-62 melanoma and with OVCAR-4 ovarian was over 100 µM in each case. The TGI with NCI-H460 lung, in the experiment on UO-31 renal and with HOP-92 NSCLC was over 100 µM each time.

For `CC(=O)O.CC(=O)O.CC(=O)O.CC(=O)O.CC(=O)O.CC(=O)O.O.[Ti].[Ti]`, the GI50 with KM12 colon, with SK-MEL-5 melanoma, with LXFL 529 NSCLC, in the experiment with MALME-3M melanoma, in the experiment with HCC-2998 colon and with UACC-62 melanoma was over 100 µM each time. In addition, the GI50 in the experiment on OVCAR-4 ovarian, in the experiment on UO-31 renal and in the experiment on HOP-92 NSCLC was over 100 µM throughout. Further, the TGI with KM12 colon, with SK-MEL-5 melanoma, in the experiment on LXFL 529 NSCLC, in the experiment with MALME-3M melanoma, in the experiment with HCC-2998 colon and in the experiment with UACC-62 melanoma was over 100 µM each time. Further, the TGI with OVCAR-4 ovarian, with UO-31 renal and in the experiment with HOP-92 NSCLC was over 100 µM in each case.

Take `Cc1ccc(S(=O)(=O)NCC2CCCCC2=O)cc1` (stereo not drawn): the TGI in the experiment on KM12 colon, with SK-MEL-5 melanoma, with LXFL 529 NSCLC, with MALME-3M melanoma, in the experiment on UACC-62 melanoma and in the experiment with OVCAR-4 ovarian was over 100 µM in each case. The figures for the TGI in the experiment with NCI-H460 lung, in the experiment with UO-31 renal and in the experiment on HOP-92 NSCLC were over 100 µM, over 100 µM and 97.2 µM, respectively.

With `CC(C)(C)C(=O)OCOP(=O)(OCOC(=O)C(C)(C)C)C1CCCN(O)C1=O` (stereo not drawn), the GI50 is 0.443 µM with KM12 colon; 0.324 µM with SK-MEL-5 melanoma; 0.425 µM in the experiment with MALME-3M melanoma; 0.446 µM in the experiment on HCC-2998 colon; 0.318 µM in the experiment with UACC-62 melanoma; 0.508 µM in the experiment with OVCAR-4 ovarian. Also, the figures for the GI50 in the experiment on NCI-H460 lung, with UO-31 renal and with HOP-92 NSCLC were 0.561 µM, 0.306 µM and 0.695 µM, respectively. The TGI with KM12 colon came out at 13.3 µM; in the experiment with SK-MEL-5 melanoma, 1.58 µM; in the experiment on MALME-3M melanoma it was 5.81 µM; in the experiment on HCC-2998 colon, 5.59 µM; with UACC-62 melanoma it was 2.1 µM; in the experiment on OVCAR-4 ovarian, 59.7 µM. Further, the TGI with NCI-H460 lung worked out at 12.9 µM; with UO-31 renal, 6.41 µM; with HOP-92 NSCLC it was 51.5 µM.
